Measurements: the supplement of paper PMC10307832

Assays:
Test in all cases: relative viability (nuclei count vs DMSO), 5 days (fraction); higher = more cells survive
Ponatinib + Tozasertib = compound: Cc1ccc(C(=O)Nc2ccc(CN3CCN(C)CC3)c(C(F)(F)F)c2)cc1C#Cc1cnc2cccnn12 [Ponatinib] + Cc1cc(Nc2cc(N3CCN(C)CC3)nc(Sc3ccc(NC(=O)C4CC4)cc3)n2)n[nH]1 [Tozasertib] (partner 0.1 µM)
Summary of the method: (§1)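 Nuclei were stained with Hoechst during a one-step fixation (final 0.05% Triton X-100, 1% formaldehyde, 1 ug/ml Hoechst) carried out 5 days after dosing, then counted on 4× images. The cells, lung cancer lines in 1536-well plates, had been dosed by pin tool the day after seeding with one drug alone or a fixed anchor-drug dose plus five library-drug doses (not always all listed) in √10 steps. Relative viability is the nuclei count in treated wells divided by that in vehicle wells, and each value is the median of duplicate plates.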

Ponatinib + Phenformin = compound: Cc1ccc(C(=O)Nc2ccc(CN3CCN(C)CC3)c(C(F)(F)F)c2)cc1C#Cc1cnc2cccnn12 [Ponatinib] + N=C(N)NC(=N)NCCc1ccccc1 [Phenformin] (partner 250 µM)
Summary of the method: as §1

Pazopanib + Bortezomib = compound: Cc1ccc(Nc2nccc(N(C)c3ccc4c(C)n(C)nc4c3)n2)cc1S(N)(=O)=O [Pazopanib] + CC(C)C[C@H](NC(=O)[C@H](Cc1ccccc1)NC(=O)c1cnccn1)B(O)O [Bortezomib] (partner 0.002 µM)
Summary of the method: as §1

Pazopanib + Lapatinib = compound: Cc1ccc(Nc2nccc(N(C)c3ccc4c(C)n(C)nc4c3)n2)cc1S(N)(=O)=O [Pazopanib] + CS(=O)(=O)CCNCc1ccc(-c2ccc3ncnc(Nc4ccc(OCc5cccc(F)c5)c(Cl)c4)c3c2)o1 [Lapatinib] (partner 2 µM)
Summary of the method: as §1

Cell Line | relative viability (Ponatinib + Tozasertib; first compound 0.002 µM) | relative viability (Ponatinib + Tozasertib; first compound 0.006325 µM) | relative viability (Ponatinib + Tozasertib; first compound 0.06325 µM) | relative viability (Ponatinib + Tozasertib; first compound 0.2 µM) | relative viability (Ponatinib + Phenformin; first compound 0.002 µM) | relative viability (Ponatinib + Phenformin; first compound 0.006325 µM) | relative viability (Ponatinib + Phenformin; first compound 0.06325 µM) | relative viability (Ponatinib + Phenformin; first compound 0.2 µM) | relative viability (Pazopanib + Bortezomib; first compound 0.01 µM) | relative viability (Pazopanib + Bortezomib; first compound 0.03162 µM) | relative viability (Pazopanib + Bortezomib; first compound 0.1 µM) | relative viability (Pazopanib + Bortezomib; first compound 0.3162 µM) | relative viability (Pazopanib + Bortezomib; first compound 1 µM) | relative viability (Pazopanib + Lapatinib; first compound 0.01 µM) | relative viability (Pazopanib + Lapatinib; first compound 0.03162 µM) | relative viability (Pazopanib + Lapatinib; first compound 0.1 µM) | relative viability (Pazopanib + Lapatinib; first compound 0.3162 µM) | relative viability (Pazopanib + Lapatinib; first compound 1 µM)
NCI-H3122 | 0.43 | 0.421 | 0.382 | 0.359 | 0.301 | 0.378 | 0.384 | 0.356 | 1.04 | 0.985 | 0.917 | 1.02 | 1.1 | 1.09 | 1.04 | 1.17 | 1.01 | 1.08
PC-3 [JPC-3] | 0.851 | 0.822 | 0.951 | 0.824 | 0.461 | 0.502 | 0.502 | 0.477 | 0.957 | 0.948 | 0.814 | 0.868 | 0.774 | 0.367 | 0.463 | 0.493 | 0.468 | 0.451
PC-14 | 0.527 | 0.628 | 0.609 | 0.472 | 0.443 | 0.619 | 0.665 | 0.605 | 0.976 | 0.805 | 1.16 | 0.858 | 0.856 | 0.305 | 0.295 | 0.304 | 0.379 | 0.45
RERF-LC-KJ | 0.476 | 0.474 | 0.405 | 0.281 | 0.41 | 0.417 | 0.482 | 0.426 | 1.03 | 1.05 | 1.05 | 1.16 | 1.04 | 0.761 | 0.758 | 0.815 | 0.734 | 0.799
SK-LU-1 | 0.349 | 0.419 | 0.321 | 0.218 | 0.445 | 0.469 | 0.475 | 0.328 | 1.15 | 1.08 | 1.23 | 1.37 | 1.27 | 0.903 | 0.942 | 1.18 | 0.976 | 0.871
SW 1573 | 0.202 | 0.16 | 0.162 | 0.176 | 0.35 | 0.392 | 0.292 | 0.405 | 0.945 | 1.14 | 1.08 | 1.09 | 1.17 | 0.996 | 1.1 | 1.14 | 1.27 | 1.41
